Measured values: patent US7524869B2, “Taxanes having a C10 ester substituent” (Florida State University Research Foundation, Inc., priority 2000, dated 2009)

System: HCT116
Experiment: In vitro cytotoxicity measured by the cell colony formation assay
Format: cell-based
Conditions: HCT116 cells, 72 h drug incubation, colonies counted after 7 days; ID50 = drug concentration producing 50% inhibition of colony formation; read-out: IN VITRO ID 50 (nm) HCT116

CC(=O)O[C@@]12CO[C@@H]1C[C@H](O)[C@@]1(C)C(=O)[C@H](OC(=O)C=C(C)C)C3=C(C)[C@@H](OC(=O)[C@H](O)[C@@H](NC(=O)OC(C)(C)C)c4ccccn4)C[C@@](O)([C@@H](OC(=O)c4ccccc4)C12)C3(C)C (some centres unmarked) [Compound 2464]
IC50: < 1 nM

CC(=O)O[C@@]12CO[C@@H]1C[C@H](O)[C@@]1(C)C(=O)[C@H](OC(=O)C=C(C)C)C3=C(C)[C@@H](OC(=O)[C@H](O)[C@@H](NC(=O)OC(C)(C)C)c4ccncc4)C[C@@](O)([C@@H](OC(=O)c4ccccc4)C12)C3(C)C (some centres unmarked) [Compound 2472]
IC50: < 1 nM

CC(=O)O[C@@]12CO[C@@H]1C[C@H](O)[C@@]1(C)C(=O)[C@H](OC(=O)C=C(C)C)C3=C(C)[C@@H](OC(=O)[C@H](O)[C@@H](NC(=O)OC(C)(C)C)c4ccco4)C[C@@](O)([C@@H](OC(=O)c4ccccc4)C12)C3(C)C (some centres unmarked) [Compound 2488]
IC50: < 1 nM

CC(=O)O[C@@]12CO[C@@H]1C[C@H](O)[C@@]1(C)C(=O)[C@H](OC(=O)C=C(C)C)C3=C(C)[C@@H](OC(=O)[C@H](O)[C@@H](NC(=O)OC(C)(C)C)c4ccoc4)C[C@@](O)([C@@H](OC(=O)c4ccccc4)C12)C3(C)C (some centres unmarked) [Compound 2499]
IC50: < 1 nM

CC(=O)O[C@@]12CO[C@@H]1C[C@H](O)[C@@]1(C)C(=O)[C@H](OC(=O)C=C(C)C)C3=C(C)[C@@H](OC(=O)[C@H](O)[C@@H](NC(=O)OC(C)(C)C)c4cccs4)C[C@@](O)([C@@H](OC(=O)c4ccccc4)C12)C3(C)C (some centres unmarked) [Compound 2503]
IC50: < 1 nM

CC(=O)O[C@@]12CO[C@@H]1C[C@H](O)[C@@]1(C)C(=O)[C@H](OC(=O)C=C(C)C)C3=C(C)[C@@H](OC(=O)[C@H](O)[C@@H](NC(=O)OC(C)(C)C)c4ccsc4)C[C@@](O)([C@@H](OC(=O)c4ccccc4)C12)C3(C)C (some centres unmarked) [Compound 2511]
IC50: < 1 nM

CC(=O)O[C@@]12CO[C@@H]1C[C@H](O)[C@@]1(C)C(=O)[C@H](OC(=O)C=C(C)C)C3=C(C)[C@@H](OC(=O)[C@H](O)[C@@H](NC(=O)OC(C)(C)C)c4ccccc4)C[C@@](O)([C@@H](OC(=O)c4ccccc4)C12)C3(C)C (some centres unmarked) [Compound 2520]
IC50: < 10 nM

CC(=O)O[C@@]12CO[C@@H]1C[C@H](O)[C@@]1(C)C(=O)[C@H](OC(=O)C3CC3)C3=C(C)[C@@H](OC(=O)[C@H](O)[C@@H](NC(=O)OC(C)(C)C)c4ccoc4)C[C@@](O)([C@@H](OC(=O)c4ccccc4)C12)C3(C)C (some centres unmarked) [Compound 2781]
IC50: < 1 nM

CC(=O)O[C@@]12CO[C@@H]1C[C@H](O)[C@@]1(C)C(=O)[C@H](OC(=O)C3CC3)C3=C(C)[C@@H](OC(=O)[C@H](O)[C@@H](NC(=O)OC(C)(C)C)c4ccsc4)C[C@@](O)([C@@H](OC(=O)c4ccccc4)C12)C3(C)C (some centres unmarked) [Compound 2794]
IC50: < 1 nM

CC(=O)O[C@@]12CO[C@@H]1C[C@H](O)[C@@]1(C)C(=O)[C@H](OC(=O)C3CC3)C3=C(C)[C@@H](OC(=O)[C@H](O)[C@@H](NC(=O)OC(C)(C)C)c4ccccn4)C[C@@](O)([C@@H](OC(=O)c4ccccc4)C12)C3(C)C (some centres unmarked) [Compound 2802]
IC50: < 1 nM

CC(=O)O[C@@]12CO[C@@H]1C[C@H](O)[C@@]1(C)C(=O)[C@H](OC(=O)C3CC3)C3=C(C)[C@@H](OC(=O)[C@H](O)[C@@H](NC(=O)OC(C)(C)C)c4ccncc4)C[C@@](O)([C@@H](OC(=O)c4ccccc4)C12)C3(C)C (some centres unmarked) [Compound 2813]
IC50: < 1 nM

CC(=O)O[C@@]12CO[C@@H]1C[C@H](O)[C@@]1(C)C(=O)[C@H](OC(=O)C3CC3)C3=C(C)[C@@H](OC(=O)[C@H](O)[C@@H](NC(=O)c4ccccc4)c4ccoc4)C[C@@](O)([C@@H](OC(=O)c4ccccc4)C12)C3(C)C (some centres unmarked) [Compound 2826]
IC50: < 1 nM

CC(=O)O[C@@]12CO[C@@H]1C[C@H](O)[C@@]1(C)C(=O)[C@H](OC(=O)C3CC3)C3=C(C)[C@@H](OC(=O)[C@H](O)[C@@H](NC(=O)c4ccccc4)c4ccsc4)C[C@@](O)([C@@H](OC(=O)c4ccccc4)C12)C3(C)C (some centres unmarked) [Compound 2838]
IC50: < 1 nM

CC(=O)O[C@@]12CO[C@@H]1C[C@H](O)[C@@]1(C)C(=O)[C@H](OC(=O)C3CC3)C3=C(C)[C@@H](OC(=O)[C@H](O)[C@@H](NC(=O)c4ccccc4)c4ccccn4)C[C@@](O)([C@@H](OC(=O)c4ccccc4)C12)C3(C)C (some centres unmarked) [Compound 2844]
IC50: < 10 nM

CC(=O)O[C@@]12CO[C@@H]1C[C@H](O)[C@@]1(C)C(=O)[C@H](OC(=O)C3CC3)C3=C(C)[C@@H](OC(=O)[C@H](O)[C@@H](NC(=O)c4ccccc4)c4ccncc4)C[C@@](O)([C@@H](OC(=O)c4ccccc4)C12)C3(C)C (some centres unmarked) [Compound 2855]
IC50: < 1 nM

CC(=O)O[C@@]12CO[C@@H]1C[C@H](O)[C@@]1(C)C(=O)[C@H](OC(=O)C3CC3)C3=C(C)[C@@H](OC(=O)[C@H](O)[C@@H](NC(=O)c4ccccc4)c4ccc([N+](=O)[O-])cc4)C[C@@](O)([C@@H](OC(=O)c4ccccc4)C12)C3(C)C (some centres unmarked) [Compound 2869]
IC50: < 10 nM

CCC(=O)O[C@H]1C(=O)[C@@]2(C)C([C@H](OC(=O)c3ccccc3)[C@]3(O)C[C@H](OC(=O)[C@H](O)[C@@H](NC(=O)c4ccco4)c4cccs4)C(C)=C1C3(C)C)[C@]1(OC(C)=O)CO[C@@H]1C[C@@H]2O (some centres unmarked) [Compound 3053]
IC50: < 1 nM

CC(=O)O[C@@]12CO[C@@H]1C[C@H](O)[C@@]1(C)C(=O)[C@H](OC(=O)C3CC3)C3=C(C)[C@@H](OC(=O)[C@H](O)[C@@H](NC(=O)OC(C)C)c4cccs4)C[C@@](O)([C@@H](OC(=O)c4ccccc4)C12)C3(C)C (some centres unmarked) [Compound 3071]
IC50: < 1 nM

CC(=O)O[C@@]12CO[C@@H]1C[C@H](O)[C@@]1(C)C(=O)[C@H](OC(=O)C3CC3)C3=C(C)[C@@H](OC(=O)[C@H](O)[C@@H](NC(=O)OCC(C)C)c4ccco4)C[C@@](O)([C@@H](OC(=O)c4ccccc4)C12)C3(C)C (some centres unmarked) [Compound 3102]
IC50: < 1 nM

CCCC(=O)O[C@H]1C(=O)[C@@]2(C)C([C@H](OC(=O)c3ccccc3)[C@]3(O)C[C@H](OC(=O)[C@H](O)[C@@H](NC(=O)OCC(C)C)c4ccco4)C(C)=C1C3(C)C)[C@]1(OC(C)=O)CO[C@@H]1C[C@@H]2O (some centres unmarked) [Compound 3110]
IC50: < 1 nM

CC(=O)O[C@@]12CO[C@@H]1C[C@H](O)[C@@]1(C)C(=O)[C@H](OC(=O)C3CC3)C3=C(C)[C@@H](OC(=O)[C@H](O)[C@@H](NC(=O)OCC(C)C)c4cccs4)C[C@@](O)([C@@H](OC(=O)c4ccccc4)C12)C3(C)C (some centres unmarked) [Compound 3129]
IC50: < 10 nM

CCCC(=O)N[C@@H](c1cccs1)[C@@H](O)C(=O)O[C@H]1C[C@@]2(O)[C@@H](OC(=O)c3ccccc3)C3[C@](C)(C(=O)[C@H](OC(=O)C4CC4)C(=C1C)C2(C)C)[C@@H](O)C[C@H]1OC[C@@]31OC(C)=O (some centres unmarked) [Compound 3132]
IC50: < 1 nM

CCCC(=O)N[C@@H](c1cccs1)[C@@H](O)C(=O)O[C@H]1C[C@@]2(O)[C@@H](OC(=O)c3ccccc3)C3[C@](C)(C(=O)[C@H](OC(=O)CCC)C(=C1C)C2(C)C)[C@@H](O)C[C@H]1OC[C@@]31OC(C)=O (some centres unmarked) [Compound 3148]
IC50: < 1 nM

CCC(=O)O[C@H]1C(=O)[C@@]2(C)C([C@H](OC(=O)c3ccccc3)[C@]3(O)C[C@H](OC(=O)[C@H](O)[C@@H](NC(=O)OCC(C)C)c4cccs4)C(C)=C1C3(C)C)[C@]1(OC(C)=O)CO[C@@H]1C[C@@H]2O (some centres unmarked) [Compound 3163]
IC50: < 1 nM

CCCC(=O)O[C@H]1C(=O)[C@@]2(C)C([C@H](OC(=O)c3ccccc3)[C@]3(O)C[C@H](OC(=O)[C@H](O)[C@@H](NC(=O)c4ccccc4)c4ccco4)C(C)=C1C3(C)C)[C@]1(OC(C)=O)CO[C@@H]1C[C@@H]2O (some centres unmarked) [Compound 3204]
IC50: < 1 nM

CCCC(=O)N[C@@H](c1ccco1)[C@@H](O)C(=O)O[C@H]1C[C@@]2(O)[C@@H](OC(=O)c3ccccc3)C3[C@](C)(C(=O)[C@H](OC(=O)CC)C(=C1C)C2(C)C)[C@@H](O)C[C@H]1OC[C@@]31OC(C)=O (some centres unmarked) [Compound 3219]
IC50: < 1 nM

CCCC(=O)N[C@@H](c1ccco1)[C@@H](O)C(=O)O[C@H]1C[C@@]2(O)[C@@H](OC(=O)c3ccccc3)C3[C@](C)(C(=O)[C@H](OC(=O)CCC)C(=C1C)C2(C)C)[C@@H](O)C[C@H]1OC[C@@]31OC(C)=O (some centres unmarked) [Compound 3222]
IC50: < 1 nM

CCCC(=O)O[C@H]1C(=O)[C@@]2(C)C([C@H](OC(=O)c3ccccc3)[C@]3(O)C[C@H](OC(=O)[C@H](O)[C@@H](NC(=O)c4ccccc4)c4cccs4)C(C)=C1C3(C)C)[C@]1(OC(C)=O)CO[C@@H]1C[C@@H]2O (some centres unmarked) [Compound 3258]
IC50: < 1 nM

CCCC(=O)O[C@H]1C(=O)[C@@]2(C)C([C@H](OC(=O)c3ccccc3)[C@]3(O)C[C@H](OC(=O)[C@H](O)[C@@H](NC(=O)OCC(C)C)c4cccs4)C(C)=C1C3(C)C)[C@]1(OC(C)=O)CO[C@@H]1C[C@@H]2O (some centres unmarked) [Compound 3265]
IC50: < 10 nM

CC(=O)O[C@@]12CO[C@@H]1C[C@H](O)[C@@]1(C)C(=O)[C@H](OC(=O)C3CC3)C3=C(C)[C@@H](OC(=O)[C@H](O)[C@@H](NC(=O)c4ccco4)c4cccs4)C[C@@](O)([C@@H](OC(=O)c4ccccc4)C12)C3(C)C (some centres unmarked) [Compound 3297]
IC50: < 1 nM

CCCC(=O)O[C@H]1C(=O)[C@@]2(C)C([C@H](OC(=O)c3ccccc3)[C@]3(O)C[C@H](OC(=O)[C@H](O)[C@@H](NC(=O)c4ccco4)c4cccs4)C(C)=C1C3(C)C)[C@]1(OC(C)=O)CO[C@@H]1C[C@@H]2O (some centres unmarked) [Compound 3352]
IC50: < 1 nM

CCC(=O)O[C@H]1C(=O)[C@@]2(C)C([C@H](OC(=O)c3ccccc3)[C@]3(O)C[C@H](OC(=O)[C@H](O)[C@@H](NC(=O)OC(C)C)c4cccs4)C(C)=C1C3(C)C)[C@]1(OC(C)=O)CO[C@@H]1C[C@@H]2O (some centres unmarked) [Compound 3361]
IC50: < 1 nM

CCOC(=O)N[C@@H](c1cccs1)[C@@H](O)C(=O)O[C@H]1C[C@@]2(O)[C@@H](OC(=O)c3ccccc3)C3[C@](C)(C(=O)[C@H](OC(=O)CC)C(=C1C)C2(C)C)[C@@H](O)C[C@H]1OC[C@@]31OC(C)=O (some centres unmarked) [Compound 3370]
IC50: < 1 nM

CCCC(=O)O[C@H]1C(=O)[C@@]2(C)C([C@H](OC(=O)c3ccccc3)[C@]3(O)C[C@H](OC(=O)[C@H](O)[C@@H](NC(=O)c4cccs4)c4cccs4)C(C)=C1C3(C)C)[C@]1(OC(C)=O)CO[C@@H]1C[C@@H]2O (some centres unmarked) [Compound 3408]
IC50: < 1 nM

CCCC(=O)O[C@H]1C(=O)[C@@]2(C)C([C@H](OC(=O)c3ccccc3)[C@]3(O)C[C@H](OC(=O)[C@H](O)[C@@H](NC(=O)OC(C)C)c4ccco4)C(C)=C1C3(C)C)[C@]1(OC(C)=O)CO[C@@H]1C[C@@H]2O (some centres unmarked) [Compound 3417]
IC50: < 1 nM
